Where two headings read alike, the source gives them in different places.
Tests used:
[1] = molecular target: T1, full-length NS3/NS4A-2 (HCV NS3 protease) (Hepatitis C virus genotype 1a, UniProt P27958); test: NS3-NS4 protease assay / NS3 inhibition assay (RETS1 substrate, fluorescence kinetic read); type: biochemical
T1 construct: Recombinant E. coli or Baculovirus full-length NS3 was diluted to 3.33 μM with assay buffer; made in house; host or cells: E. coli or baculovirus (BV) expression system
T1 sequence (P27958 1027-1657): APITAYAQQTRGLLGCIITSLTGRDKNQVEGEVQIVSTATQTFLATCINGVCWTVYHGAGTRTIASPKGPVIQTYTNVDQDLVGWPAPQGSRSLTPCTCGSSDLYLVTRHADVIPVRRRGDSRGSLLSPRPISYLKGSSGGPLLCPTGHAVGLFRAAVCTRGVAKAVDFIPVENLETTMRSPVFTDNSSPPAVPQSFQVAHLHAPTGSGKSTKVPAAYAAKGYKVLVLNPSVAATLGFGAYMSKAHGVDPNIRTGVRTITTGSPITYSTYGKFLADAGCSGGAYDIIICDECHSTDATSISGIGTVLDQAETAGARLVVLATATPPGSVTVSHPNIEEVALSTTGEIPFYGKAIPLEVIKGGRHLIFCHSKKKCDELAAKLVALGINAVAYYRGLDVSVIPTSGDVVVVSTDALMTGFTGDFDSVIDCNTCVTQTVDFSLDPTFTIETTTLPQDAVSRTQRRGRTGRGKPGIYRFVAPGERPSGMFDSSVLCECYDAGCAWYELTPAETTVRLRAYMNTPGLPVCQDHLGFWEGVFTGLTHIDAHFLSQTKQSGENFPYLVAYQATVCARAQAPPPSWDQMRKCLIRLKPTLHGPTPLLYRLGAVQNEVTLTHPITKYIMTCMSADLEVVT
How it was run: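 Full-length NS3 from E. coli (2 nM in assay) or baculovirus (3 nM) was precomplexed with excess NS4A-2 peptide, then preincubated 10 min at room temperature with serially diluted compounds starting at 50 microM. Reaction was started with RETS1 substrate at 8 μM before addition and read kinetically for 30 min (ex 335/em 495 nm). Four-parameter IC50s were converted to Ki by Cheng-Prusoff using Km 2.03 μM (E. coli) or 1.74 μM (BV).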

[2] = system: HCV sub-genomic replicon in GS4.3 cells (HuH-7 hepatoma cells); test: Quantitation by ELISA of Neomycin phosphotransferase II (NPTII) in the HCV sub-genomic replicon, GS4.3; type: cell-based, hepatitis C virus; details: Hepatitis C virus, Huh-7; GS4.3 cells, 72 h incubation, NPTII ELISA; read-out: Replicon EC50
How it was run: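 HuH-7 GS4.3 cells carrying HCV sub-genomic replicon 1377/NS3-3′, treated 72 h at 37 °C without G418 with 3-fold dilutions from 10 μM to 56 pM (1% DMSO). NPTII in cell lysates measured by direct ELISA with TMB readout at 450 nm. EC50 from 4-parameter fit of percent DMSO-control signal.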

[3] = recombinant E. coli or Baculovirus full-length NS3 with NS4A-2, read-out: NS3-NS4 IC50

Compound	IC50 [1, 3]	EC50 [2]	IC50 [1]
O=C1N[C@]2(C(=O)NS(=O)(=O)C3CC3)C[C@H]2/C=C\CCCCC[C@H](Nc2nc(-c3ccccc3)cs2)C(=O)N2C[C@H](OC(=O)N3Cc4cccc(Cl)c4C3)C[C@@H]12 [Compound 929]	< 100 nM	< 100 nM	
CC(C)(C)OC(=O)N[C@H]1CCC(F)(F)CC/C=C\[C@@H]2C[C@@]2(C(=O)O)NC(=O)[C@@H]2C[C@@H](OC(=O)N3Cc4cccc(F)c4C3)CN2C1=O [Compound 1001]	< 100 nM	< 10000 nM	
CC(C)(C)OC(=O)N[C@H]1CCC(F)(F)CC/C=C\[C@@H]2C[C@@]2(C(=O)NS(=O)(=O)C2CC2)NC(=O)[C@@H]2C[C@@H](OC(=O)N3Cc4cccc(F)c4C3)CN2C1=O [Compound 1002]	< 100 nM	< 100 nM	
N[C@H]1CCC(F)(F)CC/C=C\[C@@H]2C[C@@]2(C(=O)NS(=O)(=O)C2CC2)NC(=O)[C@@H]2C[C@@H](OC(=O)N3Cc4cccc(F)c4C3)CN2C1=O [Compound 1003]	< 100 nM	< 1000 nM	
O=C(N[C@H]1CCC(F)(F)CC/C=C\[C@@H]2C[C@@]2(C(=O)NS(=O)(=O)C2CC2)NC(=O)[C@@H]2C[C@@H](OC(=O)N3Cc4cccc(F)c4C3)CN2C1=O)OC1CCCC1 [Compound 1004]	< 100 nM	< 100 nM	
CC(C)(C)OC(=O)N[C@H]1CCCC(F)(F)C/C=C\[C@@H]2C[C@@]2(C(=O)O)NC(=O)[C@@H]2C[C@@H](OC(=O)N3Cc4cccc(F)c4C3)CN2C1=O [Compound 1006, (2R,6S,13aS,14aR,16aS,Z)-6-(tert-butoxycarbonylamino)-9,9-difluoro-2-(4-fluoroisoindoline-2-carbonyloxy)-5,16-dioxo-1,2,3,5,6,7,8,9,10,11,13a,14,14a,15,16,16a-hexadecahydrocyclopropa(e)prrolo[1,2-a][1,4]diazacyclopentadecine-14a-carboxylic acid]	< 100 nM	< 10000 nM	
CC(C)(C)OC(=O)N[C@H]1CCC(F)(F)CC/C=C\[C@@H]2C[C@@]2(C(=O)O)NC(=O)[C@@H]2C[C@@H](OC(=O)N3Cc4ccccc4C3)CN2C1=O [Compound 1007]	< 100 nM	< 10000 nM	
CC(C)(C)OC(=O)N[C@H]1CCCC(F)(F)C/C=C\[C@@H]2C[C@@]2(C(=O)NS(=O)(=O)C2CC2)NC(=O)[C@@H]2C[C@@H](OC(=O)N3Cc4cccc(F)c4C3)CN2C1=O [Compound 1008, (2R,6S,13aS,14aR,16aS,Z)-6-(tert-butoxycarbonylamino)-14a-(cyclopropylsulfonylcarbamoyl)-9,9-difluoro-5,16-dioxo-1,2,3,5,6,7,8,9,10,11,13a,14,14a,15,16,16a-hexadecahydrocyclopropa(e)prrolo[1,2-a][1,4]diazacyclopentadecine 2-yl 4-fluoroisoindoline-2-carboxylate]	< 100 nM	< 100 nM	
CC(C)(C)OC(=O)N[C@H]1CCC(F)(F)CC/C=C\[C@@H]2C[C@@]2(C(=O)NS(=O)(=O)C2CC2)NC(=O)[C@@H]2C[C@@H](OC(=O)N3Cc4ccccc4C3)CN2C1=O [Compound 1009]	< 100 nM	< 100 nM	
N[C@H]1CCC(F)(F)CC/C=C\[C@@H]2C[C@@]2(C(=O)NS(=O)(=O)C2CC2)NC(=O)[C@@H]2C[C@@H](OC(=O)N3Cc4ccccc4C3)CN2C1=O [Compound 1011]	< 100 nM	< 1000 nM	
CC(C)OC(=O)N[C@H]1CCC(F)(F)CC/C=C\[C@@H]2C[C@@]2(C(=O)NS(=O)(=O)C2CC2)NC(=O)[C@@H]2C[C@@H](OC(=O)N3Cc4ccccc4C3)CN2C1=O [Compound 1012]	< 100 nM	< 100 nM	
CC(C)(C)OC(=O)N[C@H]1CCC(F)(F)CC/C=C\[C@@H]2C[C@@]2(C(=O)O)NC(=O)[C@@H]2C[C@@H](OC(=O)N3CCc4ccccc4C3)CN2C1=O [Compound 1013]	< 100 nM	< 100 nM	
CC(C)(C)OC(=O)N[C@H]1CCC(F)(F)CC/C=C\[C@@H]2C[C@@]2(C(=O)NS(=O)(=O)C2CC2)NC(=O)[C@@H]2C[C@@H](OC(=O)N3CCc4ccccc4C3)CN2C1=O [Compound 1014]	< 100 nM	< 100 nM	
CN(C)S(=O)(=O)NC(=O)[C@@]12C[C@H]1/C=C\CCC(F)(F)CC[C@H](NC(=O)OC(C)(C)C)C(=O)N1C[C@H](OC(=O)N3Cc4cccc(F)c4C3)C[C@H]1C(=O)N2 [Compound 1015]	< 100 nM	< 100 nM	
CN(C)S(=O)(=O)NC(=O)[C@@]12C[C@H]1CCCCC(F)(F)CC[C@H](NC(=O)OC(C)(C)C)C(=O)N1C[C@H](OC(=O)N3Cc4cccc(F)c4C3)C[C@H]1C(=O)N2 [Compound 1016]	< 100 nM	< 100 nM	
CC(C)(C)OC(=O)N[C@H]1CCC(O)CC/C=C\[C@@H]2C[C@@]2(C(=O)O)NC(=O)[C@@H]2C[C@@H](OC(=O)N3Cc4cccc(F)c4C3)CN2C1=O (stereo partly shown) [Compound 1017]	< 1000 nM	> 10000 nM	
CC(C)(C)OC(=O)N[C@H]1CCCOC/C=C\[C@@H]2C[C@@]2(C(=O)NCC2CC2)NC(=O)[C@@H]2C[C@@H](OC(=O)N3Cc4cccc(F)c4C3)CN2C1=O [Compound 1019]	< 100 nM	< 1000 nM	
CC(C)(C)OC(=O)N[C@H]1COCCC/C=C\[C@@H]2C[C@@]2(C(=O)NS(=O)(=O)C2CC2)NC(=O)[C@@H]2C[C@@H](OC(=O)N3Cc4cccc(F)c4C3)CN2C1=O [Compound 1020, (2R,6S,13aS,14aR,16aS,Z)-6-(tert-butoxycarbonylamino)-14a-(cyclopropylsulfonylcarbamoyl)-5,16-dioxo-2,3,5,6,7,9,10,11,13a,14,14a,15,16,16a-tetradecahydro-1H-cyclopropa(i)pyrrolo[1,2-e][1,5,8]oxadiazacyclopentadecin-2-yl 4-fluoroisoindoline-2-carboxylate]		< 100 nM	< 100 nM
CC(C)(C)OC(=O)N[C@H]1COCCCCC[C@@H]2C[C@@]2(C(=O)NS(=O)(=O)C2CC2)NC(=O)[C@@H]2C[C@@H](OC(=O)N3Cc4cccc(F)c4C3)CN2C1=O [Compound 1022, (2R,6S,13aR,14aR,16aS)-6-(tert-butoxycarbonylamino)-14a-(cyclopropylsulfonylcarbamoyl)-5,16-dioxohexadecahydro-1H-cyclopropa(i)pyrrolo[1,2-e][1,5,8]oxadiazacyclopentadecin-2-yl 4-fluoroisoindoline-2-carboxylate]	< 100 nM	< 100 nM	
CC(C)(C)OC(=O)N[C@H]1CCCOCCC[C@@H]2C[C@@]2(C(=O)NS(=O)(=O)C2CC2)NC(=O)[C@@H]2C[C@@H](OC(=O)N3Cc4cccc(F)c4C3)CN2C1=O [Compound 1023, (2R,6S,13aR,14aR,16aS)-6-(tert-butoxycarbonylamino)-14a-(cyclopropylsulfonylcarbamoyl)-5,16-dioxohexadecahydro-1H-cyclopropa(e)pyrrolo[2,1-i][1,7,10]oxadiazacyclopentadecin-2-yl 4-fluoroisoindoline-2-carboxylate]		< 1000 nM	< 100 nM
CC(C)(C)OC(=O)N[C@H]1COCCC/C=C\[C@@H]2C[C@@]2(C(=O)O)NC(=O)[C@@H]2C[C@@H](OC(=O)N3Cc4cccc(Cl)c4C3)CN2C1=O [Compound 1024]	< 100 nM	< 100 nM	
CC(C)(C)OC(=O)N[C@H]1CCOCC/C=C\[C@@H]2C[C@@]2(C(=O)O)NC(=O)[C@@H]2C[C@@H](OC(=O)N3Cc4cccc(F)c4C3)CN2C1=O [Compound 1026]	< 100 nM	< 10000 nM	
CC(C)(C)OC(=O)N[C@H]1CCOCC/C=C\[C@@H]2C[C@@]2(C(=O)NS(=O)(=O)C2CC2)NC(=O)[C@@H]2C[C@@H](OC(=O)N3Cc4cccc(F)c4C3)CN2C1=O [Compound 1027, (2R,6S,13aS,14aR,16aS,Z)-6-(tert-butoxycarbonylamino)-14a-(cyclopropylsulfonylcarbamoyl)-5,16-dioxo-2,3,5,6,7,8,10,11,13a,14,14a,15,16,16a-tetradecahydro-1H-cyclopropa(j)pyrrolo[1,2-f][1,6,9]oxadiazacyclopentadecin-2-yl 4-fluoroisoindoline-2-carboxylate]		< 100 nM	< 100 nM
CC(C)(C)OC(=O)N[C@H]1CCOCCCC[C@@H]2C[C@@]2(C(=O)NS(=O)(=O)C2CC2)NC(=O)[C@@H]2C[C@@H](OC(=O)N3Cc4cccc(F)c4C3)CN2C1=O [Compound 1028, (2R,6S,13aR,14aR,16aS)-6-(tert-butoxycarbonylamino)-14a-(cyclopropylsulfonylcarbamoyl)-5,16-dioxohexadecahydro-1H-cyclopropa(j)pyrrolo[1,2-f][1,6,9]oxadiazacyclopentadecin-2-yl 4-fluoroisoindoline-2-carboxylate]	< 100 nM	< 100 nM	
CC(C)(C)OC(=O)N[C@H]1CCNCC/C=C\[C@@H]2C[C@@]2(C(=O)NS(=O)(=O)C2CC2)NC(=O)[C@@H]2C[C@@H](OC(=O)N3Cc4cccc(F)c4C3)CN2C1=O [Compound 1031]	< 100 nM	< 1000 nM	
CC(C)(C)OC(=O)N[C@H]1CCN(CC(F)(F)F)CC/C=C\[C@@H]2C[C@@]2(C(=O)NS(=O)(=O)C2CC2)NC(=O)[C@@H]2C[C@@H](OC(=O)N3Cc4cccc(F)c4C3)CN2C1=O [Compound 1032]	< 100 nM	< 100 nM	

Reference: patent US7829665B2 (priority 2005, dated 2010)
